# Measured values from ChEMBL document CHEMBL3297647, “Biological evaluation of subglutinol a as a novel immunosuppressive agent for inflammation intervention” (ACS Med Chem Lett, 2014).
# Calls of active or inactive are those of the source. The calls are words filed in the database; no cut-off is given here.
# Columns and labels:
# [1] = Immunosuppressive activity in C57Bl/6 mouse lymphocytes assessed as inhibition of cell proliferation co-incubated with BALB/c mouse stimulator lymphocytes after 72 hrs by [3H]-thymidine incorporation assay; assay type: functional, cell-based; conditions: C57Bl/6, Lymphocyte
# T-cell [2] = assay: Induction of apoptosis in pMel-1 TCR transgenic C57BL/6 mouse gp100 (25 to 33)-activated CD8-positive T cells assessed as live undivided cells at 100 nM after 48 hrs by CFSE dilution/flow cytometric analysis (reference value: 23.4%); assay type: functional
# T-cell [3] = assay: Induction of apoptosis in LLO118 TCR transgenic mouse LLO (190 to 205)-activated CD4-positive T cells assessed as live undivided cells at 100 nM after 48 hrs by CFSE dilution/flow cytometric analysis (reference value: 41.6%); assay type: functional
# T-cell [4] = assay: Induction of apoptosis in pMel-1 TCR transgenic C57BL/6 mouse gp100 (25 to 33)-activated CD8-positive T cells assessed as live divided cells at 100 nM after 48 hrs by CFSE dilution/flow cytometric analysis (reference value: 55.2%); assay type: functional
# Lymphocyte = assay: Immunosuppressive activity in lymphocytes by MLR assay; assay type: functional, cell-based
# T-cell [5] = assay: Induction of apoptosis in pMel-1 TCR transgenic C57BL/6 mouse gp100 (25 to 33)-activated CD8-positive T cells assessed as dead divided cells at 100 nM after 48 hrs by CFSE dilution/flow cytometric analysis (reference value: 14.7%); assay type: functional
# T-cell [6] = assay: Induction of apoptosis in pMel-1 TCR transgenic C57BL/6 mouse gp100 (25 to 33)-activated CD8-positive T cells assessed as dead undivided cells at 100 nM after 48 hrs by CFSE dilution/flow cytometric analysis (reference value: 6.77%); assay type: functional
# T-cell [7] = assay: Induction of apoptosis in LLO118 TCR transgenic mouse LLO (190 to 205)-activated CD4-positive T cells assessed as dead undivided cells at 100 nM after 48 hrs by CFSE dilution/flow cytometric analysis (reference value: 14.7%); assay type: functional
# T-cell [8] = assay: Induction of apoptosis in LLO118 TCR transgenic mouse LLO (190 to 205)-activated CD4-positive T cells assessed as live divided cells at 100 nM after 48 hrs by CFSE dilution/flow cytometric analysis (reference value: 40.6%); assay type: functional
# T-cell [9] = assay: Induction of apoptosis in LLO118 TCR transgenic mouse LLO (190 to 205)-activated CD4-positive T cells assessed as dead divided cells at 100 nM after 48 hrs by CFSE dilution/flow cytometric analysis (reference value: 3.04%); assay type: functional
# Mus musculus [10] = assay: Immunosuppressive activity in C57BL/6J mouse KLH-induced delayed-type hypersensitivity model assessed as alleviation of footpad swelling at 16 nmol administered on day 7 and 8 post-sensitization measured on day 9; assay type: functional, organism-based
# BMDC [11] = assay: Reduction in mitochondrial mass in LPS-matured B6 mouse BMDC at 100 nM for 1 day by MitoTracker Deep Red FM staining-based flow cytometric analysis; assay type: functional
# Th1 [12] = assay: Induction of mitochondrial depolarization in LLO118 TCR transgenic mouse Th1 cells treated for 2 days by MitoTracker Orange CMTMRos staining-based flow cytometric analysis; assay type: functional, cell-based
# Th17 [13] = assay: Antiinflammatory activity in LLO118 TCR transgenic mouse Th17 cells assessed as inhibition of IL-17 production at 10 to 100 nM for 2 days by flow cytometric analysis; assay type: functional, cell-based
# [14] = Antiinflammatory activity in LLO118 TCR transgenic mouse IL-2-competent CD4-positive T cells assessed as inhibition of LLO (190 to 205)-induced IL-2 production at 1 nM for 2 days by flow cytometric analysis relative to control; assay type: functional; conditions: T-cell, 48 h
# Mus musculus [15] = assay: Immunosuppressive activity in C57BL/6J mouse KLH-induced delayed-type hypersensitivity model assessed as blockade of lymphocyte accumulation at 16 nmol administered on day 7 and 8 post-sensitization measured on day 9; assay type: functional, organism-based
# Th1 [16] = assay: Reduction in mitochondrial mass in LLO118 TCR transgenic mouse Th1 cells at 50 to 100 nM for 2 days by MitoTracker Deep Red FM staining-based flow cytometric analysis; assay type: functional, cell-based
# [17] = Antiinflammatory activity in LLO118 TCR transgenic mouse Th1 cells assessed as inhibition of IFN-gamma production at 10 nM for 2 days by flow cytometric analysis (reference value: 90%); assay type: functional; set-up: scale not given: the % may be the effect or the level left
# Th17 [18] = assay: Induction of mitochondrial depolarization in LLO118 TCR transgenic mouse Th17 cells treated for 2 days by MitoTracker Orange CMTMRos staining-based flow cytometric analysis; assay type: functional, cell-based
# BMDC [19] = assay: Reduction in mitochondrial mass in B6 mouse immature BMDC at 100 nM for 1 day by MitoTracker Deep Red FM staining-based flow cytometric analysis; assay type: functional
# Th17 [20] = assay: Reduction in mitochondrial mass in LLO118 TCR transgenic mouse Th17 cells at 50 to 100 nM for 2 days by MitoTracker Deep Red FM staining-based flow cytometric analysis; assay type: functional, cell-based
# Mus musculus [21] = assay: Immunosuppressive activity in C57BL/6J mouse KLH-induced delayed-type hypersensitivity model assessed as amelioration of tissue injury at 16 nmol administered on day 7 and 8 post-sensitization measured on day 9; assay type: functional, organism-based
# BMDC [22] = assay: Induction of mitochondrial depolarization in LPS-matured B6 mouse BMDC at 100 nM for 1 day by MitoTracker Orange CMTMRos staining-based flow cytometric analysis; assay type: functional
# BMDC [23] = assay: Induction of mitochondrial depolarization in B6 mouse immature BMDC at 100 nM for 1 day by MitoTracker Orange CMTMRos staining-based flow cytometric analysis; assay type: functional
# T-cell [24] = assay: Antiinflammatory activity in LLO118 TCR transgenic mouse IL-2-competent CD4-positive T cells assessed as inhibition of LLO (190 to 205)-induced IL-2 production at 100 nM for 2 days by flow cytometric analysis; assay type: functional, cell-based
Compound,IC50 [1] [nM],Activity (T-cell [2]) [%],Activity (T-cell [3]) [%],Activity (T-cell [4]) [%],IC50 (Lymphocyte) [nM],Activity (T-cell [5]) [%],Activity (T-cell [6]) [%],Activity (T-cell [7]) [%],Activity (T-cell [8]) [%],Activity (T-cell [9]) [%],other results
C=C1CC[C@H]2[C@]3(C)C[C@H](C=C(C)C)O[C@H]3CC[C@]2(C)[C@@H]1Cc1c(O)c(C)c(C)oc1=O [SUBGLUTINOL B],100,,,,,,,,,,
C/C=C/C[C@@H](C)[C@@H](O)[C@H]1C(=O)N[C@@H](CC)C(=O)N(C)CC(=O)N(C)[C@@H](CC(C)C)C(=O)N[C@@H](C(C)C)C(=O)N(C)[C@@H](CC(C)C)C(=O)N[C@@H](C)C(=O)N[C@H](C)C(=O)N(C)[C@@H](CC(C)C)C(=O)N(C)[C@@H](CC(C)C)C(=O)N(C)[C@@H](C(C)C)C(=O)N1C [CYCLOSPORINE],,2.01,1.94,0.68,89,10.8,86.5,86.1,1.02,10.9,
C=C1CC[C@H]2[C@]3(C)C[C@@H](C=C(C)C)O[C@H]3CC[C@]2(C)[C@@H]1Cc1c(O)c(C)c(C)oc1=O [SUBGLUTINOL A],100,12.3,13.4,1.04,25,3.09,83.6,82.6,0.73,3.29,Activity (Mus musculus [10]): Active; Activity (BMDC [11]): inactive; Activity (Th1 [12]): Dose-dependent effect; inhibition (Th17 [13]): Active; inhibition at 0.001 µM [14]: 50%; Activity (Mus musculus [15]): Active; Activity (Th1 [16]): Active; Activity [17]: <1%; Activity (Th17 [18]): Dose-dependent effect; Activity (BMDC [19]): inactive; Activity (Th17 [20]): inactive; Activity (Mus musculus [21]): Active; Activity (BMDC [22]): inactive; Activity (BMDC [23]): inactive; inhibition (T-cell [24]): Active
